pEC50: −log10 of the molar value. Where two headings read alike, the source gives them in different places. Starred links: 1 amine or outer side, 2 acyl side, 3 side chain; linkers in the order of their positions; H or OH if unused. Positions of bridges follow the written chain, without caps; N, C: chain ends. Non-standard residues stand in square brackets, D forms with d. Residues, ends and D or L forms follow the SMILES beside them. Groups on a side chain read outwards from the residue. *: point of attachment. PEG8 = NCCOCCOCCOCCOCCOCCOCCOCCOCCC(=O)O; Palmitoyl = CCCCCCCCCCCCCCCC(=O)*; hCys = N[C@@H](CCS)C(=O)O; X1 = O=C(CC[*:2])[*:1]
What was measured:
[1] = Blood parameters after 22-day treatment of DIO rats; assay type: in vivo, male Sprague Dawley rats
Text: (§1) Male Sprague Dawley rats were fed 60% HF diet (D12492; Research Diets, Inc; New Brunswick, NJ; 5.21 kcal/g) for 16 weeks prior to the start of the study. Rats were then singly house in BioDAQ cages (Research Diets, Inc.; New Brunswick, NJ) and allowed to acclimate to their new environment for 10 days. Baseline measures of body weight, food intake and water intake were taken for one week to balance the groups and create feeding pairs. Each group (n=6 animals/group) averaged 714.47±81.6 g at baseline (Table 3).
(§2) Effects of ASK2131 were compared to a vehicle-treated group, OXT-treated group, as well as a pair-fed control group. Three days of baseline measures were taken before subcutaneous treatment administration began on day 4 of the study. Assessments were made to body weight, food intake and water intake. ASK2131 was administered at 50 nmol/kg throughout the entire study period. […] OXT-treated animals were started at 50 nmol/kg dose for two days, followed by 150 nmol/kg, then 300 nmol/kg, until ending at 600 nmol/kg for the remainder of the study.
Cardiac puncture was used to collect blood for analysis 2 h post final injection. Commercially available enzyme-linked immunosorbent assays (ELISA) were used for quantitative assessment of leptin (cat. #EZRL-83K; MilliporeSigma, Burlington, MA, USA), insulin (cat. #EZRMI-13K; MilliporeSigma, Burlington, MA, USA), and adiponectin (cat. #EZRAPD-62K MilliporeSigma, Burlington, MA, USA). Serum samples were diluted 1:500 for the adiponectin ELISA using the sample diluent provided with the kit. All ELISAs were completed following the manufacturers recommendations. Levels of glucose, cholesterol (total, HDL, and calculated LDL), triglycerides, ALT, and AST were determined in the serum on a Modular P chemistry analyzer (Roche Diagnostics, Risch-Rotkreuz, Switzerland) by the University of Washington Nutrition and Obesity Research Center's Analytic Core (Seattle, WA, USA).

[2] = molecular target: T1, human V1a receptor (Homo sapiens, UniProt P37288); assay: Cytosolic Ca2+ mobilization agonist assay at human V1a receptor; assay type: cell-based; settings: stably transfected CHO cells; read-out: hV1aR, EC50
T1 construct: expressed in transfected cells; host or cells: CHO
Protocol: The cells were suspended in DMEM buffer (Invitrogen, Carlsbad, CA) complemented with 0.1% FCSd, then distributed in microplates at a density of 4.5×10^4 cells/well. The fluorescent probe (Fluo4 Direct, Invitrogen, Carlsbad, CA) mixed with probenicid in HBSS buffer (Invitrogen, Carlsbad, CA) complemented with 20 mM HEPES (Invitrogen, Carlsbad, CA) (pH 7.4) was then added into each well and equilibrated with the cells for 60 min at 37° C. then 15 min at 22° C. The assay plates were positioned in a microplate reader (CellLux, PerkinElmer) followed by the addition of the test compound ASK2131, reference agonist or HBSS buffer (basal control), and the measurements of changes in fluorescence intensity which varies proportionally to the free cytosolic Ca^2+ ion concentration. For stimulated control measurements, AVP at 1 μM was added in separate assay wells. The results were expressed as a percent of the control response to 1 μM AVP. The standard reference agonist was AVP, which was tested in each experiment at several concentrations to generate a concentration-response curve from which its EC50 value was calculated.

[3] = molecular target: T2, human V2 receptor (Homo sapiens, UniProt P30518); assay: cAMP production (HTRF) agonist assay at human V2 receptor; assay type: cell-based; settings: stably transfected CHO cells, read-out: hV2R, EC50
T2 construct: expressed in transfected cells; host or cells: CHO
Protocol: In Vitro Functional Assay measuring V2R Evaluation of the agonist activity of ASK2131 at the human V2 receptor expressed in stably transfected CHO cells was conducted by measuring its effects on cAMP production using the HTRF detection method. The cells were suspended in HBSS buffer (Invitrogen, Carsbad, CA) complemented with 20 mM HEPES (pH 7.4), 0.010% BSA and 500 μM IBMX, then distributed in microplates at a density of […] cells/well and incubated for 30 min at room temperature in the absence (control) or presence of the test compound or the reference agonist.
For stimulated control measurement, separate assay wells contained 1 nM AVP. Following incubation, the cells were lysed, and the fluorescence acceptor (D2-labeled cAMP) and fluorescence donor (anti-cAMP antibody labeled with europium cryptate) were added. After 60 min at room temperature, the fluorescence transfer was measured at γ ex=337 nm and γ em=620 and 665 nm using a microplate reader (Envision, Perkin Elmer). The cAMP concentration was determined by dividing the signal measured at 665 nm by that measured at 620 nm (ratio).
The results were expressed as a percent of the control response to 1 nM AVP. The standard reference agonist was AVP, which was tested in each experiment at several concentrations to generate a concentration-response curve from which its EC50 value was calculated.

[4] = Pharmacokinetics, iv, rat; assay type: in vivo
[5] = 22-day long-term study in DIO rats (body weight, food and water intake); assay type: in vivo, male Sprague Dawley rats; settings: in words
Text: For studies utilizing a DIO rat model, male Sprague Dawley rats (CD-IGS rats, strain 001; approximately 4 weeks of age; 51-75 g) purchased from Charles River Laboratories (Wilmington, MA, USA). These rats were fed a diet of 60% calories from fat (Formula: D12492; Research Diets, Inc., New Brunswick, NJ, USA; 5.21 kcal/g) for 4.5 to 6 months prior to the start of the study to induce obesity. For studies utilizing lean rats, male Sprague Dawley rats (CD-IGS rats, strain 001; 226-250 g) purchased from Charles River Laboratories (Wilmington, MA, USA). All rats had ad libitum access to food and water and were kept on a 12 h light/12 h dark cycle. Animals were individually housed in a temperature (22±1° C.) and humidity (57±4%) controlled room. All body weight measurements were taken just prior to the start of the dark cycle.
as §1, §2

[6] = molecular target: T3, hOXTR (Homo sapiens, UniProt P30559); assay: Ca2+ flux fluorometric imaging plate reader assay at OXTR; assay type: cell-based
T3 construct: expressed in transfected cells; host or cells: CHO (hOTR NFAT bLac)
T3 sequence (P30559 1-389): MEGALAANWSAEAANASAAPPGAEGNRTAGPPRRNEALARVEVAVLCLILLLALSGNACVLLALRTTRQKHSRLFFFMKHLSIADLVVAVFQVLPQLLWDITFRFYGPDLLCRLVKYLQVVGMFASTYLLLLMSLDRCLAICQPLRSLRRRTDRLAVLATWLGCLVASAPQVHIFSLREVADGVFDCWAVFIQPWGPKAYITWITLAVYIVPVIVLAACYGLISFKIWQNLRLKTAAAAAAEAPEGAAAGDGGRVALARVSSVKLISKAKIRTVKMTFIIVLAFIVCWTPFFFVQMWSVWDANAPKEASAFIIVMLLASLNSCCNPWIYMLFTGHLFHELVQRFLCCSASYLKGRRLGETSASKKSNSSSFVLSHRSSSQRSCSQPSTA
Protocol: In a typical experimental protocol, stably transfected Chinese hamster ovary (CHO) hOTR NFAT bLac cells were plated at a density of 10,000 cells/well in a 384-well plate in growth medium (Dulbecco's modified Eagle's medium+Glutamax (Thermo Fisher Scientific, Waltham, MA), 10% dialyzed fetal bovine serum). The next day calcium-sensitive, fluo-4 dye (Invitrogen, Carlsbad, CA) and probenecid (Invitrogen; 2.5 mM) was dissolved in 20 ml warm dye loading buffer (Hanks' balanced salt solution with calcium and magnesium, 20 mM Hepes, pH 7.4) and added to each well. Plates were incubated for 60-120 minutes in a 37° C. cell incubator to allow cells to uptake the dye. […] After dye-loading, the cell plates were placed on the fluorometric imaging plate reader. A total of […] of test compound was added to the […] of dye on the cells, and intracellular Ca^2+ was monitored for 90 seconds. Intracellular Ca^2+ concentrations were calculated as the maximum increase over basal levels. Responses were normalized to control responses. Data were analyzed by curve fitting.

[7] = serum 2 h post final injection, 22 days sc, mean ± SEM, OXT n=4

T1 sequence (P37288 whole entry): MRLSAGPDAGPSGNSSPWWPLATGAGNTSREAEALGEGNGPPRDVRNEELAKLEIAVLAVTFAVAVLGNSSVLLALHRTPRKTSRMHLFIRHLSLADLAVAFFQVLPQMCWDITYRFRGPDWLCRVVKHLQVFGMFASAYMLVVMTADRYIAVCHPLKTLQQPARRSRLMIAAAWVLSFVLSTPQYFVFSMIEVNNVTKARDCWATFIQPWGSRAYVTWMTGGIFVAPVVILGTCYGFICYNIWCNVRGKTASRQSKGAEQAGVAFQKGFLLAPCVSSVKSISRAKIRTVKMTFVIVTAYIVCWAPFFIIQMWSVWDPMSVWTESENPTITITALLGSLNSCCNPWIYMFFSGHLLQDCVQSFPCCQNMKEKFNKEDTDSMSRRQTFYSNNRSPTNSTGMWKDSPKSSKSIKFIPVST
T2 sequence (P30518 whole entry): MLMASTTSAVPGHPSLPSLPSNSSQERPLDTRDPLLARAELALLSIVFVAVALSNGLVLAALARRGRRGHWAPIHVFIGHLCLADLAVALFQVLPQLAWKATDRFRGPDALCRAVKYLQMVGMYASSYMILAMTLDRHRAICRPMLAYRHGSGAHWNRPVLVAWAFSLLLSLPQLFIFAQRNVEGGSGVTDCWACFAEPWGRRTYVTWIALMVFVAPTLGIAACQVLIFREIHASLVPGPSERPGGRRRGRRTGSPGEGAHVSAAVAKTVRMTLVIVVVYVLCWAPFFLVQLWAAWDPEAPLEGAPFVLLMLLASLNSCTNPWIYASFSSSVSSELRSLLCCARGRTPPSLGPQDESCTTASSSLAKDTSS

pEC50 [2]: < 6.00 | pEC50 [3]: 9.44 | T1/2 [4]: 2.30 h | Tmax [4]: 4.00 h | free Cmax ([4]; 4 hours post-dose): 0.5 nM | half-life ([4]; plasma): 2.3 h | clearance ([4]; plasma, read-out: CLplasma): 1.2 mL/min/kg | Tmax ([4]; plasma, read-out: Tmax): 4 h | Vd ([4]; plasma, read-out: Vd, steady-state volume of distribution): 0.8 L/kg | Cmax at 4 h ([4]; total plasma concentration, 4 hours post-dose): 276 nM | pEC50 [6]: 8.96 | Ratio OXTR/V2R/ ([6]; ratio of EC50 values): 3.06
SMILES: CCCCCCCCCCCCCCCC(=O)NCCOCCOCCOCCOCCOCCOCCOCCOCCC(=O)NCCCC[C@H](NC(=O)CNC(=O)[C@@H]1CCSCCC(=O)N[C@@H](Cc2ccc(O)cc2)C(=O)N[C@@H]([C@@H](C)CC)C(=O)N[C@@H](CCC(N)=O)C(=O)N[C@@H](CC(N)=O)C(=O)N1)C(=O)NCC(N)=O [ASK2131] (YIQN[hCys]GK([PEG8-Palmitoyl])G-NH2; linker N-5 via X1)
glucose, triglyceride, ALT, and AST levels ([1]; 22 days, in words): No significant differences | ALT [1, 7]: 26 ± 2 U/L | AST [1, 7]: 73 ± 8 U/L | adverse effects caused by the activation of V2R [5]: No adverse effects caused by the activation of V2R were observed

— patent US20260337229A1 (Seattle Children's Hospital (d/b/a Seattle Children's …, priority 2022, published 2026)
